Measurements from patent US20160068843A1 (priority 2012, published 2016).

Tested on: H1N1 strain (A/California/07/09 (H1N1)pdm09)
Design: species or system mice
Conditions: mouse, in vivo

In the case of `CCOC(=O)C1=C[C@@H](OC(CC)CC)[C@H](NC(C)=O)[C@@H](N)C1` [Tamiflu], the “survival compared with siRNA combination” value is reported as “equivalent”.
